Reference: PubChem BioAssay (NCI)
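Results reflect a 48-hour exposure of cells in 96-well plates to compound at five concentrations. At the GI50, growth is halved. Definition used: TGI = concentration required for complete inhibition of growth.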

Experiments:
Assay in all cases: inhibition of tumour cell growth, NCI panel, 48 h
[1] = test system: OVCAR-5 ovarian
[2] = test system: UO-31 renal
[3] = test system: HL-60(TB) leukemia
[4] = test system: K-562 leukemia
[5] = test system: SN12C renal
[6] = test system: SNB-75 CNS
[7] = test system: NCI-H460 lung
[8] = test system: SF-539 CNS
[9] = test system: MDA-MB-231 breast
[10] = test system: MCF7 breast

Row | SMILES | GI50 [1] [µM] | TGI [1] [µM] | GI50 [2] [µM] | TGI [2] [µM] | GI50 [3] [µM] | TGI [3] [µM] | GI50 [4] [µM] | TGI [4] [µM] | GI50 [5] [µM] | TGI [5] [µM] | GI50 [6] [µM] | TGI [6] [µM] | GI50 [7] [µM] | TGI [7] [µM] | TGI [8] [µM] | GI50 [9] [µM] | TGI [9] [µM] | GI50 [8] [µM] | GI50 [10] [µM] | TGI [10] [µM]
1 | O=C([CH-]C(=O)c1ccccc1)c1ccccc1.O=C([CH-]C(=O)c1ccccc1)c1ccccc1.[La+3].[OH-].[OH3+] | 65.8 | > 100 | 6.62 | 31.6 | 3.87 | 22.7 | 5.24 | > 100 | 18.4 | 68 | 5.02 | 21.6 | 8.66 | > 100 | – | – | – | – | – | –
2 | CC(C)C1CC[C@@H](C)C[C@@]1(O)CC(N)=O (stereo partly drawn) | – | > 100 | – | > 100 | – | – | – | > 100 | – | > 100 | – | > 100 | – | > 100 | > 100 | – | – | – | – | –
3 | Cc1ccc(S(=O)(=O)OC2CSS(=O)CC2OS(=O)(=O)c2ccc(C)cc2)cc1 (stereo not drawn) | – | 32.1 | – | 33 | – | 28.3 | – | 21.1 | – | 28.5 | – | 36.2 | – | 46.4 | 29.2 | – | – | – | – | –
4 | Oc1c(C(Nc2cccc3cccnc23)c2ccccc2)ccc2cccnc12 (stereo not drawn) | – | > 100 | – | > 100 | – | 7.58 | – | > 100 | – | > 100 | – | – | – | > 100 | 39 | – | – | – | – | –
5 | COC(=O)/C(C)=C(/CCC1(C)OCCO1)O[Si](C)(C)C | – | > 100 | – | > 100 | – | > 100 | – | > 100 | – | > 100 | – | 71.7 | – | > 100 | > 100 | – | – | – | – | –
6 | COc1ccc(-c2c[nH]c(C(=O)O)c2-c2cc(OC)c(OC)c(OC)c2)cc1 | 9.98 | > 100 | 5.02 | > 100 | 3.06 | 9.59 | 3.08 | > 100 | 7.94 | > 100 | – | – | 3.8 | > 100 | 15.6 | 12.4 | > 100 | 3.08 | 3.89 | > 100
7 | COc1ccc2c(c1)c(=O)oc1cc(OC/C(C)=N\O)ccc12 | > 100 | > 100 | 33.3 | > 100 | – | – | > 100 | > 100 | > 100 | > 100 | 14.9 | 42.9 | > 100 | > 100 | > 100 | 42.9 | > 100 | 59.5 | > 100 | > 100
8 | CCOc1ccccc1N1C(=O)C(=O)C(c2nc3ccccc3o2)C(=O)C1=O | – | > 100 | – | > 100 | – | > 100 | – | > 100 | – | > 100 | – | > 100 | – | – | > 100 | – | – | – | – | –
9 | O=C(O)C(SC(=S)c1ccc(C(=S)SC(C(=O)O)c2ccccc2)cc1)c1ccccc1 (stereo not drawn) | – | > 100 | – | > 100 | – | > 100 | – | > 100 | – | > 100 | – | > 100 | – | > 100 | > 100 | – | – | – | – | –
10 | Cc1cc(=O)n(-c2ccccc2C)c(C)n1 | – | > 100 | – | > 100 | – | > 100 | – | > 100 | – | > 100 | – | > 100 | – | > 100 | > 100 | – | – | – | – | –
